Source: patent US6949648B2, “Condensed pyrazole derivatives, process for producing the same and use thereof” (Takeda Pharmaceutical Company Limited, priority 2000, dated 2005)
Structures can show the parent of a compound that is named as a salt. Marks after values point to notes of the source that are not given here.

Legend:
IL-4 = experiment: Effect on cytokine production of mice sensitized by controlled-release ovalbumin: IL-4; assay type: in vivo, BALB/c mouse; details: 30 mg/kg b.w. orally, 5 days a week during 9-day period, splenic cells incubated with OVA 3 days, ELISA; for inhibition in vivo at 30 mg/kg: Mus musculus, po, read-out: Suppression Rate (%) IL-4
Procedure: (§1) Effect on Cytokine Production of Mice Sensitized by Controlled-Release Ovalbumin
(§2) An osmotic pump (Alza Co., USA) containing a solution (100 μL) containing 1.0 mg of ovalbumin (OVA; albumin chicken egg grade III, Sigma Chemical) was implanted in the back of a male BALB/c mouse (Charles River) of 8 weeks old under ether anesthesia, and the mouse is sensitized by the controlled-release ovalbumin. After 11 days from implantation of the pump, a sample of spleen was removed, and a splenic cell suspension was prepared by the use of the RPMI-1640 medium (Bio Whittaker Inc., USA) containing inactivated fetal bovine serum (10% V/V; Bio Whittaker Inc., USA), 2-mercaptoethanol (50 μM), and gentamicin (20 μg/ml). A sample compound (30 mg/kg b.w.) was suspended in 0.4 ml of methylcellulose (MC), and the suspension was orally administered, 5 days a week during the 9-day period from the initiation day of sensitization to the day before the day of blood sample collection (1 Group, n=10). The splenic cell suspension was adjusted to a concentration of 5.0×10^6 cells/ml, and the resulting suspension (100 μl) was pipetted onto a 96 well U-bottomed plate, each of the wells containing a solution (100 μl/well) of 400 μg/ml OVA, and the plate was incubated at 37° C. in a 5% carbon dioxide gas incubator for 3 days. The cultured media were centrifuged at 200×g for 5 minutes, and the supernatants were collected and the production of IL-4, IL-5 and IFN-γ in each of the supernatants was determined by the ELISA method [Mouse IL-4 Bulk Kit (PerSeptive Biosystems), Mouse IL-5 Bulk Kit (PerSeptive Biosystems), and Mouse IFN-γ Bulk Kit (PerSeptive Biosystems)].

OVA-specific IgE = experiment: Effect on antibody production of ovalbumin-sensitized mice: IgE; assay type: in vivo, BALB/c mouse; details: 30 mg/kg b.w. orally, 5 days a week during 9-day period, serum 11 days after first sensitization, ELISA; for inhibition in vivo at 30 mg/kg: Mus musculus, po, 264 h, read-out: Suppression Rate (%) IgE
Procedure: (§3) Effect on Antibody Production of Mice Sensitized by Controlled-Release Ovalbumin
(§4) A male BALB/c mouse (Charles River) of 7 weeks old was sensitized by intraabdominal administration, twice at an interval of a week, of a mixture of 10 μg/mouse of ovalbumin (OVA; albumin chicken egg grade III; Sigma Chemical) and 1 mg of aluminum hydroxide hydrate gel suspension (Alum; LSL Co. LTD.). After 11 days from the first sensitization, blood was collected from beneath eye under ether anesthesia, and the amount of OVA-specific IgE, IgG1 (Th2 type) and IgG2a (Th1 type) antibodies in the serum were determined by the ELISA method. A sample compound (30 mg/kg b.w.) was suspended in 0.4 ml of methylcellulose (MC), and the suspension was orally administered, 5 days a week during the 9-day period from the initiation day of sensitization to the day before the day of blood sample collection (1 Group, n=8 to 10).

[1] = system: OVA-specific IgG2a (Th1 type); experiment: Effect on antibody production of ovalbumin-sensitized mice: IgG2a; assay type: in vivo, BALB/c mouse; details: 30 mg/kg b.w. orally, 5 days a week during 9-day period, serum 11 days after first sensitization, ELISA; for inhibition in vivo at 30 mg/kg: Mus musculus, po, 264 h, read-out: Suppression Rate (%) IgG2a
Procedure: as §3, §4

IFN-γ = experiment: Effect on cytokine production of mice sensitized by controlled-release ovalbumin: IFN-γ; assay type: in vivo, BALB/c mouse; details: 30 mg/kg b.w. orally, 5 days a week during 9-day period, splenic cells incubated with OVA 3 days, ELISA; for inhibition in vivo at 30 mg/kg: Mus musculus, po, read-out: Suppression Rate (%) IFN-γ
Procedure: as §1, §2

IL-5 = experiment: Effect on cytokine production of mice sensitized by controlled-release ovalbumin: IL-5; assay type: in vivo, BALB/c mouse; details: 30 mg/kg b.w. orally, 5 days a week during 9-day period, splenic cells incubated with OVA 3 days, ELISA; for inhibition in vivo at 30 mg/kg: Mus musculus, po, read-out: Suppression Rate (%) IL-5
Procedure: as §1, §2

Row | melting point | SMILES | inhibition in vivo at 30 mg/kg (IL-4) | inhibition in vivo at 30 mg/kg (OVA-specific IgE) | inhibition in vivo at 30 mg/kg [1] | inhibition in vivo at 30 mg/kg (IFN-γ) | inhibition in vivo at 30 mg/kg (IL-5) | also measured
1 | – | CCOc1cccc(-n2nc(C)c3c(Cl)c4c(C)cccc4nc32)n1 [Example 1-57, 4-Chloro-3,5-dimethyl-1-(6-ethoxy-2-pyridinyl)-1H-pyrazolo[3,4-b]quinoline] | 43.2% | 23.6% | -55.1% | 36.7% | 53.9% | –
2 | – | Cc1cccnc1-n1nc(C)c2c(Cl)c3ccccc3nc21 [Example 1-56, 4-Chloro-3-methyl-1-(3-methyl-2-pyridinyl)-1H-pyrazolo[3,4-b]quinoline] | 23.7% | – | – | 12.2% | 12.2% | –
3 | – | Cc1cccc2c(N)c3c(C)nn(-c4ccc5ccccc5n4)c3nc12 [Example 1-66, 3,8-Dimethyl-1-(2-quinolinyl)-1H-pyrazolo[3,4-b]quinolin-4-ylamine] | 27.1% | – | – | 50% | 34.3% | –
4 | – | Cc1cccc2c(=O)c3c(C)nn(-c4ccccn4)c3[nH]c12 [Example 1-47, 3,8-Dimethyl-1-(2-pyridinyl)-1,9-dihydro-4H-pyrazolo[3,4-b]quinolin-4-one] | 49.9% | 4.9% | -17.1% | 31.8% | 61.1% | –
5 | 182 to 185 °C | CSc1ccc2[nH]c3c(c(C)nn3-c3ccccn3)c(=O)c2c1 [Example 1-50, 3-Methyl-6-(methylsulfanyl)-1-(2-pyridinyl)-1,9-dihydro-4H-pyrazolo[3,4-b]quinolin-4-one] | 45.5% | 22% | 19.5% | 11.1% | 60.2% | –
6 | – | Cc1cccnc1-n1nc(C)c2c(N)c3cccc(C)c3nc21 [Example 1-62, 3,8-Dimethyl-1-(3-methyl-2-pyridinyl)-1H-pyrazolo[3,4-b]quinolin-4-ylamine] | 19.4% | – | – | -13.8% | 4.8% | –
7 | – | CCOc1cccc(-n2nc(C)c3c(=O)c4cccc(C)c4[nH]c32)n1 [Example 1-61, 3,8-Dimethyl-1-(6-ethoxy-2-pyridinyl)-1,9-dihydro-4H-pyrazolo[3,4-b]quinolin-4-one] | 16% | – | – | -8.7% | 26.1% | –
8 | – | COc1cccc2c(N)c3c(C)nn(-c4ccccn4)c3nc12 [Example 1-48, 8-Methoxy-3-methyl-1-(2-pyridinyl)-1H-pyrazolo[3,4-b]quinolin-4-ylamine hydrochloride] | 31.6% | – | – | -7.6% | 16.2% | –
9 | 268 to 271 °C | Cc1nn(-c2ccccn2)c2nc3ccccc3c(N)c12.Cl [Example 1-36, 3-Methyl-1-(2-pyridinyl)-1H-pyrazolo[3,4-b]quinolin-4-ylamine hydrochloride] | 99.8% | 64.2% | 23.4% | -131% | 61.5% | –
10 | – | CCOc1cccc(-n2nc(C)c3c(N)c4cccc(C)c4nc32)n1 [Example 1-60] | – | – | – | – | – | Suppression Rate (%) IL-4 (IL-4): 56.7%; Suppression Rate (%) IgE (OVA-specific IgE): 54.9** %; Suppression Rate (%) IgG2a [1]: 47.8%; Suppression Rate (%) IFN-γ (IFN-γ): 23.4%; Suppression Rate (%) IL-5 (IL-5): 59.3%
11 | – | Cc1nn(-c2ccccn2)c2[nH]c3ccc(Cl)cc3c(=O)c12 [Example 1-51, 6-Chloro-3-methyl-1-(2-pyridinyl)-1,9-dihydro-4H-pyrazolo[3,4-b]quinolin-4-one] | 31.9% | – | – | -11.2% | 53.7% | –
12 | – | Cc1cccc2c(N)c3c(C)nn(-c4ccccn4)c3nc12 [Example 1-46, 3,8-Dimethyl-1-(2-pyridinyl)-1H-pyrazolo[3,4-b]quinolin-4-ylamine hydrochloride] | 80.4% | – | – | -132% | 5.2% | –
13 | 195 to 196 °C | Cc1nn(-c2ccccn2)c2nc(O)cc(-c3ccccc3)c12 [Example 1-27, 3-Methyl-4-phenyl-1-(2-pyridinyl)-1H-pyrazolo[3,4-b]pyridin-6-ol] | – | 24.3% | 27.1% | – | – | –
14 | – | COc1cccc(-n2nc(C)c3c(N)c4cccc(C)c4nc32)n1 [Example 1-59, 3,8-Dimethyl-1-(6-methoxy-2-pyridinyl)-1H-pyrazolo[3,4-b]quinolin-4-ylamine] | 66.5% | 60.7% | 46.3% | -124% | 27.8% | –
15 | 229 to 232 °C | CNc1c2ccccc2nc2c1c(C)nn2-c1ccccn1.Cl [Example 1-37, N-Methyl-N-[3-methyl-1-(2-pyridinyl)-1H-pyrazolo[3,4-b]quinolin-4-yl]amine hydrochloride] | – | 29.6% | 9.6% | – | – | –
16 | – | Cc1nn(-c2cccnc2)c2[nH]c3ccccc3c(=O)c12 [Example 1-64, 3-Methyl-1-(3-pyridinyl)-1,9-dihydro-4H-pyrazolo[3,4-b]quinolin-4-one] | 49.1% | – | – | -6.8% | 39.9% | –
17 | 252 to 255 °C | Cc1cccc2nc3c(c(C)nn3-c3ccccn3)c(N)c12 [Example 1-44, 3,5-Dimethyl-1-(2-pyridinyl)-1H-pyrazolo[3,4-b]quinolin-4-ylamine] | 68.2% | – | – | 36.3% | 3.1% | –
18 | 248 to 249 °C | Cc1nn(-c2ccccn2)c2nc(O)c3c(c12)CCCC3 [Example 1-29, 1-Methyl-3-(2-pyridinyl)-6,7,8,9-tetrahydro-3H-pyrazolo[3,4-c]isoquinolin-5-ol] | – | 19.1% | -22.6% | – | – | –
19 | – | COc1cc2[nH]c3c(c(C)nn3-c3ccccn3)c(=O)c2cc1OC [Example 1-49, 6,7-Dimethoxy-3-methyl-1-(2-pyridinyl)-1,9-dihydro-4H-pyrazolo[3,4-b]quinolin-4-one] | 13.9% | – | – | -9% | 11.8% | –
20 | 252 to 253 °C | Cc1nn(-c2ccccn2)c2[nH]c3ccccc3c(=S)c12 [Example 1-42, 3-Methyl-1-(2-pyridinyl)-1,9-dihydro-4H-pyrazolo[3,4-b]quinolin-4-thione] | – | 24% | 14.3% | – | – | –
21 | – | Cc1nn(-c2ncccn2)c2nc3ccccc3c(N)c12 [Example 1-65, 3-Methyl-1-(2-pyrimidinyl)-1H-pyrazolo[3,4-b]quinolin-4-ylamine hydrochloride] | 8.1% | – | – | -15.7% | 16.5% | –
22 | – | Cc1nn(Cc2ccccn2)c2[nH]c3ccccc3c(=O)c12 [Example 1-69, 3-Methyl-1-(2-pyridinylmethyl)-1,9-dihydro-4H-pyrazolo[3,4-b]quinolin-4-one] | 19.4% | – | – | 8.3% | 50% | –
